Laboratory results published in ChEMBL document CHEMBL5727779, “Compounds for inhibiting AGC kinase and pharmaceutical compositions comprising the same” (2020).

Legend:
[1] = biological target: Rho-associated protein kinase 1 (Homo sapiens, UniProt Q13464); experiment: (§1) ELISA Assay: ROCK Substrate Coated Plate (Part No 241601): One strip well 96-well plate pre-coated with recombinant MYPT1.Buffer: 25 mM Tris, pH 7.5, 10 mM MgCl2, 5 mM Glycerol-2-Phosphate, 0.1 mM Na3VO4; 1% DMSO; 2.5 mM DTT; (Enzyme: ROCK active-II) (Cell Biolabs, Catalog #STA-406, Part No. 241505) 0.1 ng/μl.ATP Solution (Part No. 241604): 100 mM ATP. Final concentration of ATP in reaction mixture: 250 μM.Anti-phospho-MYPT1 (Thr696) (Part No. 241603).Secondary Antibody, HRP Conjugate (Part No. 231003).Biotinylated substrate, diluted to 0.25 μM with buffer described above (without ATP).Steps:1. Purified kinase or cell lysate sample can be used directly in the kinase assay or further diluted with 1× Kinase Buffer. Each sample should be assayed in duplicate.2. Add 90 μL of the diluted active ROCK-II positive control or unknown ROCK samples to the wells of the substrate plate.3. Initiate the kinase reaction by adding 10 μL of the 10× Kinase Reaction Buffer containing DTT and ATP. Mix well.4. Cover with a plate cover and incubate the wells at 30° C. for 30-60 minutes with gentle agitation.5. Stop kinase reaction by flicking out the content or by adding 50 μL of 0.5M EDTA, pH 8.0, to each well.6. Remove the plate cover and empty wells. Wash microwell strips 3 times with 250 μL 1× Wash Buffer per well with thorough aspiration between each wash. After the last wash, empty wells and tap microwell strips on absorbent pad or paper towel to remove excess 1× Wash Buffer.7. Add 100 μL of the diluted anti-phospho-MYPT1 (Thr696) antibody to each well.8. Cover with the plate cover and incubate at room temperature for 1 hour on an orbital shaker.9. Remove the plate cover and empty wells. Wash the strip wells 3 times according to step 6 above.10. Add 100 μL of the diluted HRP-conjugated secondary antibody to each well.11. Cover with the plate cover and incubate at room temperature for 1 hour on an orbital shaker.12. Remove the plate cover and empty wells. Wash microwell strips 3 times according to step 6 above. Proceed immediately to the next step.13. Warm Substrate Solution to room temperature. Add 100 μL of Substrate Solution to each well, including the blank wells. Incubate at room temperature for 5-20 minutes on an orbital shaker.14. Stop the enzyme reaction by adding 100 μL of Stop Solution into each well, including the blank wells. Results should be read immediately (color will fade over time).15. Read absorbance of each microwell on a spectrophotometer using 450 nm as the primary wave length.
Chain of Rho-associated protein kinase 1 (Q13464 whole entry): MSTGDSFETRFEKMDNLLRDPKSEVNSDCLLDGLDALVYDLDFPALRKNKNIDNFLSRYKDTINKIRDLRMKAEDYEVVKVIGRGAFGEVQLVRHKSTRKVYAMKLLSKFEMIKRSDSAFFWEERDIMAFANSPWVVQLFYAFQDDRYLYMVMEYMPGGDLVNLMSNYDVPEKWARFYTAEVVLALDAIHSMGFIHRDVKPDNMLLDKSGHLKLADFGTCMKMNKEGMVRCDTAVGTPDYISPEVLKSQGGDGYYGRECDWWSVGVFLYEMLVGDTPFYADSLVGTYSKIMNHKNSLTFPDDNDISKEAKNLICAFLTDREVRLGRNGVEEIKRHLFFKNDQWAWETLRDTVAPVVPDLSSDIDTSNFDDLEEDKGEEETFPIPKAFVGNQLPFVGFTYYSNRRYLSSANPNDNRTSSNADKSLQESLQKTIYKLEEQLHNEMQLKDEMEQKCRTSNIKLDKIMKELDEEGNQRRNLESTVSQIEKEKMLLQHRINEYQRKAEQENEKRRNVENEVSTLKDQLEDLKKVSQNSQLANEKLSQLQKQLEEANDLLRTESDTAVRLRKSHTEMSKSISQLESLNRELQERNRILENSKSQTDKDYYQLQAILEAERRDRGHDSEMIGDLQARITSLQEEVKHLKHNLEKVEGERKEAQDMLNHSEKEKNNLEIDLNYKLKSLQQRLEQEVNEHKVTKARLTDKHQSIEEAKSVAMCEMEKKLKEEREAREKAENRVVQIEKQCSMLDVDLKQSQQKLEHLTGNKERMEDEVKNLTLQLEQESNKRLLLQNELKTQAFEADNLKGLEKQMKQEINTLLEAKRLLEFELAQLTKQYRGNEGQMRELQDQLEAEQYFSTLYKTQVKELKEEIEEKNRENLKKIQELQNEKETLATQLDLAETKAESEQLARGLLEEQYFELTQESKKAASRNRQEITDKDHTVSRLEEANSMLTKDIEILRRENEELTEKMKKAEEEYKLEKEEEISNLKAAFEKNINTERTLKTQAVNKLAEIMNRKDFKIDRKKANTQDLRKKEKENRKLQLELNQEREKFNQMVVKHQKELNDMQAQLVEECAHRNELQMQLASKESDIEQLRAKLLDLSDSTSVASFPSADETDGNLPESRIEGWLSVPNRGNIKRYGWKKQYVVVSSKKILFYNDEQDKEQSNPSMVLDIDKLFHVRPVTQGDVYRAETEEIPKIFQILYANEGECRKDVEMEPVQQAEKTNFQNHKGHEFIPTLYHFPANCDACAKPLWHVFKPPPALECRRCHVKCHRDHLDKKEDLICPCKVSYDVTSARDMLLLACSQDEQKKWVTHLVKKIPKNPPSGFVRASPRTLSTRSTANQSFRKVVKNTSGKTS

[2] = biological target: Rho-associated protein kinase 2 (Homo sapiens, UniProt O75116); experiment: as §1
Chain of Rho-associated protein kinase 2 (O75116 whole entry): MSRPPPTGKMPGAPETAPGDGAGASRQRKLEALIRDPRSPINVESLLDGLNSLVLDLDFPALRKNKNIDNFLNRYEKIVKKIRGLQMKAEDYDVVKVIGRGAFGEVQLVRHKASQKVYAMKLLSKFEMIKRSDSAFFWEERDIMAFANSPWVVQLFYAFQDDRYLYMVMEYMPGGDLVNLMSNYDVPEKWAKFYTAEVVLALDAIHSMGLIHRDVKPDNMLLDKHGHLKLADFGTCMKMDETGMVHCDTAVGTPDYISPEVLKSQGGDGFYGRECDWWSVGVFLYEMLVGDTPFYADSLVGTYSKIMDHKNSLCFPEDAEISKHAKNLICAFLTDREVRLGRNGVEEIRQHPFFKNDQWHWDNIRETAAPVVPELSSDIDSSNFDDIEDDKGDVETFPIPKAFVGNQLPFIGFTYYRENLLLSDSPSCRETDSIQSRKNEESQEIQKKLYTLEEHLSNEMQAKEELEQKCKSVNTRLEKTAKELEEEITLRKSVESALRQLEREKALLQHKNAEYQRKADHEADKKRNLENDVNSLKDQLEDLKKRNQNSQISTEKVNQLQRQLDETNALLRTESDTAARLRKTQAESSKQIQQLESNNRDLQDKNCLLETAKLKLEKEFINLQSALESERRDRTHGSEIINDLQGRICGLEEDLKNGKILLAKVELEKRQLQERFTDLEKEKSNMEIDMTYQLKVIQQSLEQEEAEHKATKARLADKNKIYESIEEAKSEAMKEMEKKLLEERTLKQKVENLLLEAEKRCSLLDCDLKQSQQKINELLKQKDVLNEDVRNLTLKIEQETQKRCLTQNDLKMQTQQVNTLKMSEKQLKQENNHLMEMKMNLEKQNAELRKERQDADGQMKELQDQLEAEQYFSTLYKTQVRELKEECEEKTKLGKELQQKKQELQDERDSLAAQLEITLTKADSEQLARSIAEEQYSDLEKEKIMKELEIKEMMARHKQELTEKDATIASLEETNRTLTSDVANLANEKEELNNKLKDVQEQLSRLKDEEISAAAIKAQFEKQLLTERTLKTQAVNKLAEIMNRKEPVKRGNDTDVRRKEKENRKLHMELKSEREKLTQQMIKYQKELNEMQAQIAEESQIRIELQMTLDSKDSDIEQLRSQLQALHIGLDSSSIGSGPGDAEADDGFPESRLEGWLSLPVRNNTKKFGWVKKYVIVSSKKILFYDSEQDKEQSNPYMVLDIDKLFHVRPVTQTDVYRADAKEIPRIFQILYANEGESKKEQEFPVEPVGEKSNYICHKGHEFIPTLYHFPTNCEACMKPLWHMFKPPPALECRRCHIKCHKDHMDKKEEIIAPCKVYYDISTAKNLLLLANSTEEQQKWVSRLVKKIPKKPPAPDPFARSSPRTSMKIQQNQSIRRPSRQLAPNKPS

SMILES	IC50 [1] [nM]	IC50 [2] [nM]
NCCN(Cc1ccc(F)cc1)C(=O)Nc1cccc2cnccc12	> 1000	
CN(C)CCN(Cc1ccccc1)C(=O)Nc1ccc2cnccc2c1		> 1000
COC(=O)c1ccc(CN(CCO)C(=O)Nc2ccc3cnccc3c2)cc1		> 1000
CN(C)CCN(Cc1ccc(Oc2ccc(C#N)cc2)cc1)C(=O)Nc1ccc2cnccc2c1		> 1000
